According to publication PMC10138721, “Investigation of the Compatibility between Warheads and Peptidomimetic Sequences of Protease Inhibitors—A Comprehensive Reactivity and Selectivity Study” (International Journal of Molecular Sciences, 2023):
Like-named read-outs stand apart in the source and are kept apart here.

How the values were obtained:
[1] = Reactivity test of warhead probes with PhEtSH without base (NMR/LC-MS); assay type: physicochemical; conditions: non-basic conditions
Excerpt: (§1) To investigate the reactivity between the different warheads towards the three classes of proteases (serine, threonine and cysteine proteases), their behavior in model systems under the same reaction conditions (solvent, nucleophile and base) using either NMR or LC-MS analysis was investigated. We used reactivity probes with a Boc-L-Leu-(warhead) sequence. Leucin was chosen as a P1 amino acid to minimize influences of the side chain and due to synthetic accessibility. 2-Phenylethanethiol was used as a model nucleophile to mimic the thiol moiety of cysteine proteases, and sodium ethoxide was used as a serine/threonine replacement. DMSO-d6 was used as solvent. Under these conditions, the nucleophile is deprotonated, simulating the activated serine or threonine in the catalytic triad of serine and threonine proteases, while ethanol as protonated alcohol species turned out to be unreactive in preliminary test reactions. The reactivity tests using 2-phenylethanthiol were carried out in the presence and absence of triethylamine as a base. This allowed for a reactivity comparison of the warheads towards protonated and deprotonated nucleophilic thiol species. Generating a deprotonated thiol species in the presence of triethylamine simulates the deprotonated cysteine in the catalytic dyad of cysteine proteases. Scheme 8 illustrates the reaction of the reactivity assay with both model nucleophiles and the vinyl sulfone moiety 109 as an example.
(§2) The reactivity tests of all Michael acceptors, 109, 110, 111 and 112, the α-ketobenzothiazole 115 and nitrile 117 were investigated using an NMR-based analysis method, while the β-lactam 108 reactivity was investigated via LC-MS, due to its lack of proton signals, which could be used for evaluation of the reactivity in the ^1H-NMR studies, and the irreversible reaction mechanism, which allowed the LC-MS analysis. […] Formation of the expected adducts with the nitrile 117 (PhEtSH/PhEtS^–/EtONa), the α-ketobenzothiazole 115 (PhEtSH/PhEtS^–) and the nitroalkene 111 (EtONa) could not be observed. This may have been due to the covalent reversible reaction mechanism of the nitrile and α-ketobenzothiazole and the overall difficult ionization of the specific compounds by an electron spray ionization mass spectrometer.
(§3) Method A (NMR): ^1H-NMR spectra were recorded for the respective warhead and nucleophile mixture, before the addition of the nucleophile (0 min) and after 5, 30, 60, 120 and 240 min reaction time. For quantification, the double bond-signals (doublet/doublet of doublets, around 7.4–6.7 ppm) of the Michael acceptors were integrated relative to 1,3-dioxolane as an internal standard. The acetal CH2 signal of the internal standard at 5.3 ppm was used as a reference.
(§4) The α-ketobenzothiazole 115 and nitrile 117 were similarly analyzed by ^13C-NMR. Therefore, the corresponding ^13C-leucin derivates were synthesized (Scheme 7). Quantifications of the reactions were carried out by using the integral of the carbonyl carbon atom signal at 195 ppm for the α-ketobenzothiazole and 120 ppm for the nitrile moiety. The reference signal of DMSO-d6 was set to 39.52 ppm.
(§5) Method B (LC-MS): The reactivity of the β-lactam test compound 108 with the nucleophiles was investigated using an LC-MS-based method. To quantify the conversion, the AUCs were determined at 254 nm. In Figure 3, the UV spectra of the test reaction of the β-lactam 108 with EtONa are shown exemplarily.
(§6) The β-lactam 108 (0.07 mmol, 1eq) was solved in DMSO-d6 (0.5 mL). The reaction was measured in time intervals before (0 min), 5, 30, 60, 120 and 240 mins after the addition of the corresponding nucleophile (PhEtSH/EtONa, 2 eq) in presence of Et3N (2 eq) or not. In case of PhEtSH as the nucleophile the reaction got quenched by pouring 10 µL of the reaction mixture into a solution of 25 mM TRIS (pH 7.00) and 27 mM maleimide in a 1:1 mixture of acetonitrile/H2O (990 µL). For the reaction with EtONa as the nucleophile, the reaction solution […]

[2] = Reactivity test of warhead probes with PhEtSH + Et3N (NMR/LC-MS); assay type: physicochemical
Excerpt: as §1, §2, §3, §4, §5, §6

[3] = Reactivity test of warhead probes with EtONa (NMR/LC-MS); assay type: physicochemical; conditions: DMSO-d6, after 240 min
Excerpt: as §1, §2, §3, §4, §5, §6

human cathepsin S (CatS) = target: T1, human cathepsin S (CatS) (Homo sapiens, UniProt P25774); assay: Fluorometric inhibition assay, cathepsin S; assay type: biochemical; conditions: for kinact: read-out: kinact, CatS
T1 construct: purchased Sigma Aldrich

rhodesain = rhodesain (Trypanosoma brucei rhodesiense, UniProt Q95PM0); assay: Fluorometric inhibition assay, rhodesain; assay type: biochemical; conditions: for kinact: read-out: kinact, Rhodesain
[4] = target: SARS-CoV-2 main protease (M^pro) (Severe acute respiratory syndrome coronavirus 2, UniProt P0DTD1); assay: Fluorometric (FRET) inhibition assay, SARS-CoV-2 M^pro; assay type: biochemical; conditions: for activity against M^pro, in words: initial screen at 20 µM, cut-off 80% inhibition
[5] = Table S1; a) calculated from IC50 with Cheng–Prusoff, irreversible inhibitors from kobs fits, n.a. = not active at 20 µM, read-out: Ki, Rhodesain
[6] = Table S1; a) calculated from IC50 with Cheng–Prusoff, irreversible inhibitors from kobs fits, n.a. = not active at 20 µM, * unstable towards DTT, read-out: Ki, CatS

T1 sequence (P25774 115-331): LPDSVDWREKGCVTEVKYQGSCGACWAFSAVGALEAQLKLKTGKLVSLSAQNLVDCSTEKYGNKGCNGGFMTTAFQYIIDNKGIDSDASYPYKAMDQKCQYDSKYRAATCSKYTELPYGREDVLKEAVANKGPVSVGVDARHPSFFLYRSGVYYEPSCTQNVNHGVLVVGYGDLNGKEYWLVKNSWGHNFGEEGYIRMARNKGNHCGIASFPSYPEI
Chain of rhodesain (Q95PM0 entry or part of it): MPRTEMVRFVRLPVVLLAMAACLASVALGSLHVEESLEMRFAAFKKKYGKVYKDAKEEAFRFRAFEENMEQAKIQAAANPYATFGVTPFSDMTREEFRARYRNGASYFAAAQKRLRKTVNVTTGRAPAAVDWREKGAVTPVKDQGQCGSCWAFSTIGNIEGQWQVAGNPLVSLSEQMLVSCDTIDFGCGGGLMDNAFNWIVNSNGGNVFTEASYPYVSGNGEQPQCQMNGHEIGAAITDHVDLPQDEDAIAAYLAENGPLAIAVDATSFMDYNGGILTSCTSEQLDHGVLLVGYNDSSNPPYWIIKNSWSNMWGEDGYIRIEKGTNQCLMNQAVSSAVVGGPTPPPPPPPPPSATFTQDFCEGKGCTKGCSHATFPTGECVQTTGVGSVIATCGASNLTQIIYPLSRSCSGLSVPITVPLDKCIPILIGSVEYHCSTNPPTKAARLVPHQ

For CC(C)CC(/C=C/[N+](=O)[O-])NC(=O)OC(C)(C)C (stereo not shown) [compound 111], the “reactivity with PhEtSH (protonated thiol), in words” value ([1]; DMSO-d6, up to 240 min) was “conversion was not observed”, the “maximum conversion with PhEtSH + Et3N” value ([2]; DMSO-d6, after 240 min) was 82% and the “reactivity with PhEtSH + Et3N (deprotonated thiol), in words” value ([2]; DMSO-d6, up to 240 min) was “high reactivity”. For the same compound, the “conversion with EtONa” value [3] was 84%.
With O=C(NC(COCc1ccccc1)C(=O)c1nc2ccccc2s1)C(CC1CCCCC1)NC(=O)N1CCOCC1 (stereo not shown) [compound 42] the Ki (human cathepsin S (CatS); Ki, CatS) was 233 ± 24 nM, the Ki (human cathepsin S (CatS); pKi, Cathepsin S inhibition) was 316 nM and the “activity against rhodesain, in words” value (rhodesain) was “submicromolar affinity”. It also gave a Ki (rhodesain; Ki, Rhodesain) of 324 ± 89 nM.
Work on CC(C)C[C@@H](/C=C/S(=O)(=O)c1ccccc1)NC(=O)[C@H](Cc1ccccc1)NC(=O)c1cnccn1 [compound 58] yielded a Ki (human cathepsin S (CatS); Ki, CatS) of 126 ± 71 nM, a kinact (human cathepsin S (CatS)) of 0.013 ± 0.002 s⁻¹ and a Ki (rhodesain; Ki, Rhodesain) of 331 ± 41 nM. It also gave a kinact (rhodesain) of 0.019 ± 0.001 s⁻¹.
For CCOC(=O)/C=C/C(=O)[C@H](C[C@@H]1CCNC1=O)NC(=O)[C@H](CC(C)C)NC(=O)c1cc2c(OC)cccc2[nH]1 [compound 81], the “activity against CatS, in words” value (human cathepsin S (CatS); initial screen at 20 µM, cut-off 80% inhibition) was “essentially inactive”, the Ki (rhodesain; [5]) was 99 ± 24 nM and the kinact (rhodesain; Table S1, irreversible inhibitors) was 0.006 ± 0.0009 s⁻¹.
For O=C(N[C@@H](Cc1ccccc1)C(=O)N[C@H](/C=C/[N+](=O)[O-])CCc1ccccc1)OCc1ccccc1 [compound 13], the Ki (human cathepsin S (CatS); Ki, CatS) was 201 ± 93 nM and the Ki (rhodesain; Ki, Rhodesain) was 0.06 ± 0.006 nM.
In the case of COc1cccc2[nH]c(C(=O)N[C@@H](CC(C)C)C(=O)N[C@@H](C[C@@H]3CCNC3=O)C(=O)NC3CN(c4ccccc4)C3=O)cc12 (stereo partly shown) [compound 96], the “activity against M^pro, in words” value [4] is reported as “inactive at 20 µM”.
O=C(N[C@@H](Cc1ccccc1)C(=O)N[C@H](/C=C/S(=O)(=O)c1ccccc1)CCc1ccccc1)OCc1ccccc1 [compound 16] showed a Ki (human cathepsin S (CatS); pKi, Cathepsin S inhibition) of 1 nM, a kinact (human cathepsin S (CatS)) of 0.0037 ± 0.0006 s⁻¹ and a Ki (rhodesain; Ki, Rhodesain) of 20 ± 2 nM. For the same compound, the Ki (rhodesain; pKi, Rhodesain inhibition) was 20 nM and the kinact (rhodesain) was 0.005 ± 0.0001 s⁻¹.
In the case of CC(C)C[C@H](NC(=O)OC(C)(C)C)[13C](N)=O [compound 116], the “time until equilibrium was reached with PhEtSH” value ([1]; DMSO-d6) is reported as 5 min.
Work on CCOC(=O)/C=C/C(=O)[C@H](CCc1ccccc1)NC(=O)[C@H](Cc1ccccc1)NC(=O)OCc1ccccc1 [compound 22] yielded a Ki (human cathepsin S (CatS); Ki, CatS) of 18 ± 3 nM, a kinact (human cathepsin S (CatS)) of 0.0022 ± 0.0001 s⁻¹ and a Ki (rhodesain; Ki, Rhodesain) of 79 ± 7 nM. For the same compound, the kinact (rhodesain) was 0.008 ± 0.001 s⁻¹.
With COc1cccc2[nH]c(C(=O)N[C@@H](CC(C)C)C(=O)N[C@H](C#N)C[C@@H]3CCNC3=O)cc12 [compound 84] the Ki (human cathepsin S (CatS); [6]) was 104 ± 9 nM, the “activity against M^pro, in words” value [4] was “displayed inhibitory activity” and the Ki (rhodesain; [5]) was 42 ± 5 nM.
In the case of O=C(N[C@@H](Cc1ccccc1)C(=O)N[C@@H](CCc1ccccc1)C(=O)N[C@H]1CN(c2ccccc2)C1=O)OCc1ccccc1 [compound 24], the “activity against rhodesain, in words” value (rhodesain) is reported as “inactive at 20 µM”.
O=C(N[C@@H](Cc1ccccc1)C(=O)N[C@H](/C=C(\F)S(=O)(=O)c1ccccc1)CCc1ccccc1)OCc1ccccc1 [compound 17] showed a Ki (human cathepsin S (CatS); Ki, CatS) of 966 ± 104 nM, a Ki (human cathepsin S (CatS); pKi, Cathepsin S inhibition) of 1000 nM and a Ki (rhodesain; Ki, Rhodesain) of 3570 ± 437 nM.
For COc1cccc2[nH]c(C(=O)N[C@@H](CC(C)C)C(=O)N[C@H](/C=C(\F)S(=O)(=O)c3ccccc3)C[C@@H]3CCNC3=O)cc12 [compound 94], the Ki (human cathepsin S (CatS); [6]) was 1350 ± 90 nM, the Ki [4] was 517 ± 33 nM and the “activity against M^pro, in words” value [4] was “displayed inhibitory activity”. For the same compound, the Ki (rhodesain; [5]) was 217 ± 31 nM.
In the case of COc1cccc2[nH]c(C(=O)N[C@@H](CC(C)C)C(=O)N[C@@H](C[C@@H]3CCNC3=O)C(=O)c3nc4ccccc4s3)cc12 [compound 90], the “activity against M^pro, in words” value [4] is reported as “displayed inhibitory activity”.
